Laboratory results taken from patent publication US20180203025A1, “HDL THERAPY MARKERS” (Cerenis Therapeutics Holding SA, priority 2014, published 2018).

Columns and labels:
[1] = test system: SR-BI mRNA in mouse macrophages (J774); assay: SR-BI gene expression (real-time PCR) in J774 macrophages; format: cell-based
Description: J774 were seeded on 6 well plates (300,000 cells/well) and loaded with oxidized-LDL without the use of 3H-cholesterol. […] Gene expression was assayed using the protocols described in Sections 8.3.2 (RNA extraction); 8.3.4 (reverse transcription), and 8.3.5 (qPCR). SR-BI gene expression was determined with Taqman probe Mm00450234.m1 according to the manufacturer's protocol. The reference gene used is HPRT1 (Taqman probe: Mm00446968.m1).
J774 were seeded on 6 well plates (300,000 cells/well) and loaded with oxidized-LDL. […] Gene expression was assayed using the protocols described in Sections 8.3.2 (RNA extraction); 8.3.4 (reverse transcription), and 8.3.5 (qPCR). SR-BI gene (Taqman probe Mm00450234.m1), ABCG1 (Taqman probe Mm00437390.m1), SREBP1 (Taqman probe Mm01138344.m1) and ABCA1 (Taqman probe Mm00442646.m1) expression were determined according to the manufacturer's protocol. […]
J774 were seeded on 6 well plates (600,000 cells/well) in DMEM 10% FCS. […] ABCG1 (Taqman probe Mm00437390.m1), ABCA1 (Taqman probe Mm00442646.m1) and SR-BI (Taqman probe Mm00450234.m1) expression were determined according to the manufacturer's protocol. […]
J774 were seeded on 6 well plates (300,000 cells/well) in DMEM 2.5% FCS. […] ABCA1 (Taqman probe Mm00442646.m1), ABCG1 (Taqman probe Mm00437390.m1), and SR-BI (Taqman probe Mm00450234.m1) expression were determined according to the manufacturer's protocol. […]

[2] = test system: ABCA1 in mouse liver; assay: ABCA1 protein content in mouse liver; format: in vivo; conditions: 24 hours after the last injection; increasing concentrations
Description: This study examined the SR-BI and ABCA1 protein content in the liver 24 hours after the last injection of CER-001. A piece of liver (50 mg) was lysed in PBS (500 μL) by brief sonication. The sample was centrifuged (800×g for 10 minutes) and the pellet was discarded. The supernatant was centrifuged for 30 minutes at 16,000×g at 4° C. and the pellet was solubilized with PBS 1% Triton X100 (200 μL). 10 μg of solubilized pellet was loaded on SDS PAGE 10% and ABCA1 expression (ab7360—dilution 1/1000) or SR-BI expression (ab24603—dilution 1/1000) was quantified using imageJ® software.

[3] = test system: RLT pathway; assay: SAMBA trial: cholesterol mobilization, LCAT activation, fecal cholesterol elimination; format: in vivo, human; conditions: one dose 8 mg/Kg
Description: […] After this induction phase, the study subjects were re-evaluated with lipoprotein profiles and an MRI scan. Subsequently, the study subjects continued to be treated once every two weeks in a “maintenance phase” for 6 months' total therapy. At that point the lipoprotein profiles and MRI scans were repeated.

[4] = test system: ABCA1 mRNA in Hepa1-6 (mouse hepatocytes); assay: ABCA1 mRNA in Hepa1-6 hepatocytes; format: cell-based; conditions: Study K, 250 μg/mL, 6 hours
Description: HepG2 (human hepatocytes) and Hepa1-6 (mouse hepatocytes) were seeded on 6 well plates (300,000 cells/well) in DMEM 10% FCS. […] Gene expression was assayed using the protocols described in Sections 8.3.2 (RNA extraction); 8.3.4 (reverse transcription), and 8.3.5 (qPCR). ABCA1 (Taqman probe Hs01059118.m1 and Mm00442646.m1 for respectively HepG2 and Hepa1-6) and SR-BI (Taqman probe Hs00969821.m1 and Mm00450234.m1 for respectively HepG2 and Hepa1-6) expression was determined according to the manufacturer's protocol. The reference gene used is HPRT1 (Taqman probe: Mm00446968.m1) for Hepa1-6 and GAPDH (Taqman probe: Hs03929097.g1) for HepG2 cells.

[5] = test system: ABCA1 protein in J774 macrophages; assay: ABCA1 protein level in J774 macrophages (SDS PAGE, anti-ABCA1); format: cell-based, mouse; conditions: Study H; 250 μg/mL, 6 hours
[6] = Subject 7 (ABCA1−/−, Tangier disease)

With `OC[C@H]1O[C@@H]2O[C@H]3[C@H](O)[C@@H](O)[C@@H](O[C@H]4[C@H](O)[C@@H](O)[C@@H](O[C@H]5[C@H](O)[C@@H](O)[C@@H](O[C@H]6[C@H](O)[C@@H](O)[C@@H](O[C@H]7[C@H](O)[C@@H](O)[C@@H](O[C@H]8[C@H](O)[C@@H](O)[C@@H](O[C@H]1[C@H](O)[C@H]2O)O[C@@H]8CO)O[C@@H]7CO)O[C@@H]6CO)O[C@@H]5CO)O[C@@H]4CO)O[C@@H]3CO` [β-cyclodextrin, reference compound] the “SR-BI mRNA level” value ([1]; Study O, 0.03 to 30 mM, 6 hours) was “dose-dependent increase”.

In the case of “CER-001: engineered recombinant human apolipoprotein A-I HDL with sphingomyelin and DPPG; protein-to-phospholipid ratio 1:2.7, 97% Sph and 3% DPPG”, the “liver ABCA1 protein level” value [2] is reported as “increase in ABCA1 protein level”, the “SR-BI mRNA level” value ([1]; Study J, 24 hours treatment, 250 μg/mL) is reported as “do not change the mRNA level of SR-BI” and the LCAT activation ([3]; Subject 1 (ApoA-I−/−)) is reported as “LCAT activation”. The cholesterol mobilization ([3]; Subject 1 (ApoA-I−/−)) was “cholesterol mobilization”, the LCAT activation [3, 6] was “LCAT activation” and the cholesterol mobilization [3, 6] was “cholesterol mobilization”. For the same compound, the “ABCA1 mRNA level” value [4] was “two-fold decrease” and the ABCA1 protein level [5] was “significant decrease of ABCA1 protein level”.
